These results are taken from article PMC7984888, “Inhibitory Activity of Pyrroloisoxazolidine Derivatives against Chlamydia trachomatis” (BioMed Research International, 2021).

The IC50 is the midpoint of a concentration-inhibition curve. For orientation: viability means a read-out of living cells in per cent, often relative to untreated cells.

What all share (assay type): cell-based
In data set [1] the test system is Chlamydia trachomatis serovar L2 (strain 434/Bu). The data set can be described thus: Infectious progeny inhibition assay, C. trachomatis L2. Conditions: Chlamydia trachomatis, HeLa, generation of infectious progeny EBs in HeLa cells, MOI 0.2, 36 hpi, 1 to 32 μM; read-out: IC50 (μM) Mean (95% confidence interval) Ct L2. How it is done: (§1) Chlamydia trachomatis serovars D (strain UW-3/CX) and L2 (strain 434/Bu) were purchased from ATCC. HeLa cells purchased from ATCC were routinely cultured in DMEM supplemented with 10% heat-inactivated FBS (Sigma-Aldrich) and 10 μg/mL gentamicin at 37°C in a humidified atmosphere of 5% and were used for chlamydial propagation and cell culture experiments. EBs were purified by Renografin density gradient and stored in sucrose-phosphate-glutamate (SPG) buffer at -80°C [20]. A mouse polyclonal anti-MoPn (C. muridarum strain Nigg II) antibody, which was produced in our laboratory and cross-reacting with C. trachomatis D and L2, was used as a primary antibody for both stains detection.
(§2) Cell monolayers seeded onto coverslips in a 24-well plate were infected with C. trachomatis at a multiplicity of infection (MOI) of 0.2 inclusion-forming units (IFU) per cell. Unless noted, individual compound was added into culture medium at indicated concentrations simultaneously at the time of inoculation. 0.5% DMSO was used as negative control and 11.25 μM tetracycline (Sigma-Aldrich) as positive control. For C. trachomatis D, an additional centrifugation (900 × g at room temperature for 1 h) was applied to facilitate the infection. At 36 hours postinfection (hpi), infected cells were fixed by precooled methanol and then subjected to sequential staining processed with a primary antibody and a FITC-conjugated secondary antibody. Evans blue was used as cytoplasm counterstain. Images were shot by an Olympus IX51 fluorescence microscope.
(§3) Cells monolayers seeded in 48-well plate were infected and treated with chemicals as above. After incubation for 36 hours, infected cells were washed twice, scraped off, and lysed by sonication to release the infectious progeny EBs. Then the lysates were used to reinfect fresh cell monolayers grown in 96-well plate following 1 : 10 serial dilution. The inclusion counts were obtained by immunofluorescence staining as above to calculate the number of infectious progeny EBs in each sample. Percent inhibition was calculated based on EB counts in compound-treated samples relative to DMSO-treated negative control.
(§4) Data from the three independent experiments were presented as mean ± standard deviations (SD) and were subjected to pairwise Student's t-tests. p < 0.05 and p < 0.01 are considered statistically significant and statistically highly significant, respectively. The IC50 values, defined as the concentration of compound at which the generation of infectious progeny EBs was reduced by 50% relative to negative control, were calculated by nonlinear regression from percent inhibition data using the GraphPad Prism 5 software, and presented as mean (95% confidence interval).

The test system of data set [2] is Chlamydia trachomatis serovar D (strain UW-3/CX). Kind of data set: Infectious progeny inhibition assay, C. trachomatis D. Conditions: Chlamydia trachomatis, HeLa, generation of infectious progeny EBs in HeLa cells, MOI 0.2, 36 hpi, 1 to 32 μM; read-out: IC50 (μM) Mean (95% confidence interval) Ct D. How it is done:
as §1, §2, §3, §4

Another data set is described as follows: WST-1 cell viability. Conditions: human, uninfected HeLa cells, WST-1, relative to DMSO control as 100%. Here is the method: Uninfected HeLa cells were cultured with 32 μM (the highest concentration used in antichlamydial analysis) of individual compound or 0.5% DMSO for 48 h. After 10 μL of WST-1 reagent was added, cells were incubated for an additional 1 h, and absorbance at 450 nm was recorded. The viability of compound-treated cells was calculated by the absorbance relative to that of DMSO control setting as 100% [22].

As to `Fc1ccc(N2C(c3cccc4ccccc34)CC3C(c4ccccc4Br)N(c4ccccc4)OC32)cc1` (stereo not drawn) [Compound 18], the IC50 in data set [1] is more than 32 µM; in data set [2], 21 µM. Besides, the viability at 48 h, 32 µM in “WST-1 cell viability” is 106%.
Take `Brc1ccccc1C1c2ccccc3cccc2N2C(c4ccccc4)CC3C2ON1c1ccccc1` (stereo not drawn) [Compound 8]: the IC50 in data set [1] amounted to 25.4 µM; in data set [2], 28.6 µM. Also, the viability at 48 h, 32 µM in the data set “WST-1 cell viability” was found to be 102%.
Take `COc1ccc(N2C(c3ccccc3)CC3C(c4cccc(Br)c4)N(c4ccccc4)OC32)cc1` (stereo not drawn) [Compound 5]: the figures for the IC50 in data set [1] and in data set [2] were 15.5 µM and more than 32 µM, respectively. The viability at 48 h, 32 µM in the data set “WST-1 cell viability” came out at 95.2%.
With `Cc1ccc(C2CC3C(c4ccccc4Br)N(c4ccccc4)OC3N2c2ccccc2)cc1` (stereo not drawn) [Compound 11], the IC50 in data set [1] was more than 32 µM; in data set [2] it was 23.5 µM. Further, the viability at 48 h, 32 µM in “WST-1 cell viability” was 99.7%.
On the same counts, the results for `Cc1ccc(N2C(c3ccccc3)CC3C(c4ccccc4Br)N(c4ccccc4)OC32)cc1` (stereo not drawn) [Compound 13] are more than 32 µM, 16.3 µM and 95.7%.
As for `Cc1ccc(C2CC3C(c4ccccc4)N(c4ccccc4)OC3N2c2ccc(C)cc2)cc1` (stereo not drawn) [Compound 16], the IC50 in data set [1] worked out at 13.5 µM; in data set [2], 5.93 µM. For the same molecule, the viability at 48 h, 32 µM in the data set “WST-1 cell viability” amounted to 96.5%.
`Fc1ccc(N2C(C3CCCCC3)CC3C(c4ccccc4Br)N(c4ccccc4)OC32)cc1` (stereo not drawn) [Compound 9]: the figures for the IC50 in data set [1] and in data set [2] were more than 32 µM and 19.6 µM, respectively. Also, in the data set “WST-1 cell viability”, the viability at 48 h, 32 µM worked out at 96.5%.
Turning to `Brc1ccccc1C1C2CC(/C=C/c3ccccc3)N(c3ccccc3)C2ON1c1ccccc1` (stereo not drawn) [Compound 14], the IC50 turned out to be 16.8 µM in data set [1] and 16.3 µM in data set [2]. The viability at 48 h, 32 µM in the data set “WST-1 cell viability” amounted to 98%.
With `COc1ccc(N2C(c3ccccc3)CC3C(c4ccccc4Br)N(c4ccccc4)OC32)cc1` (stereo not drawn) [Compound 4], the IC50 is 11.2 µM in data set [1] and more than 32 µM in data set [2]. Besides, the viability at 48 h, 32 µM in the data set “WST-1 cell viability” was found to be 97.5%.
As for `Fc1ccc(N2C(c3cccs3)CC3C(c4ccccc4Br)N(c4ccccc4)OC32)cc1` (stereo not drawn) [Compound 10], the IC50 was 17.4 µM in data set [1] and 15.4 µM in data set [2]. Also, the viability at 48 h, 32 µM in “WST-1 cell viability” is approximately 90%.
With `Brc1ccccc1C1C2CC(c3ccccc3)N(c3ccccc3)C2ON1c1ccccc1` (stereo not drawn) [Compound 7], the figures for the IC50 in data set [1] and in data set [2] were 19.1 µM and more than 32 µM, respectively. In addition, the viability at 48 h, 32 µM in “WST-1 cell viability” is approximately 90%.
As to `COc1ccc(N2C(c3ccccc3)CC3C(c4ccc(Br)cc4)N(c4ccccc4)OC32)cc1` (stereo not drawn) [Compound 6], the IC50 in data set [1] was 9.08 µM; in data set [2] it was 16.9 µM. Besides, the viability at 48 h, 32 µM in “WST-1 cell viability” is approximately 90%.
As to `O=[N+]([O-])c1ccc(C2CC3C(c4ccccc4Br)N(c4ccccc4)OC3N2c2ccccc2)cc1` (stereo not drawn) [Compound 12], the IC50 in data set [1] came to 17.5 µM; in data set [2], 12.5 µM. Further, the viability at 48 h, 32 µM in the data set “WST-1 cell viability” came to 104%.
On the same counts, the results for `Brc1ccccc1C1C2CC(c3ccccc3Br)N(c3ccccc3)C2ON1c1ccccc1` (stereo not drawn) [Compound 17] are more than 32 µM, 27.6 µM and 114%.
As for `O=[N+]([O-])c1ccc(C2CC3C(c4ccccc4Cl)N(c4ccccc4)OC3N2c2ccccc2)cc1` (stereo not drawn) [Compound 15], the IC50 in data set [1] was determined as 9.77 µM; in data set [2], 12.2 µM. In addition, the viability at 48 h, 32 µM in “WST-1 cell viability” worked out at 104%.
On the same counts, the results for `Brc1ccc(C2C3CC(c4ccccc4)N(c4ccccc4)C3ON2c2ccccc2)cc1` (stereo not drawn) [Compound 3] are 8.67 µM, 20.9 µM and 99.9%.
